Measurements from patent US9381281B2, “Drug eluting mesh to prevent infection of indwelling transdermal devices” (TYRX, INC., priority 2011, dated 2016).
≈ marks a conversion by molar mass, not a printed value.

Columns and labels:
myofibroblast formation = conditions: animal studies of capsular contracture with breast implants (Ajmal et al. 2003); cited from earlier work
[1] = system: Staphylococcus epidermidis A TCC 14990; experiment: Broth dilution MIC; type: cell-based; conditions: ATCC14990, S. epidermidis, read-out: Minimum Inhibitory Concentration
Excerpt: (§1) Establishing the MIC of antimicrobials is a necessary step in the process of establishing effective use concentrations. Approved standards for this activity with antibiotics are published by NCCLS. These standards are primarily intended for use in clinical settings with patient isolates. However, they represent a consensus methodology for best practice in determining MICs that are reproducible and defensible. The principles upon which they are based provide a sound framework for determining the MIC for the test.
(§2) The broth dilution method was used to measure quantitatively the in vitro activity of an antimicrobial agent against a given microbial isolate. To perform the test, a series of tubes were prepared with a broth to which various concentrations of the antimicrobial agent were added. The tubes were then inoculated with a standardized suspension of the test organism. After incubation the tubes were examined and the minimal inhibitory concentration (MIC) was determined.
(§3) The following organism were used: Acinetobacter baumanii A TCC 19606; Staphylococcus epidermidis A TCC 14990; Staphylococcus aureus ATCC 6538; Methicillin-resistant Staphylococcus aureus ATCC 33591; Escherichia coli ATCC 8739; Staphylococcus capitis ATCC 35661; or Staphylococcus schleiferi ATCC 43808.

[2] = system: Acinetobacter baumanii A TCC 19606; experiment: Broth dilution MIC; type: cell-based; conditions: Acinetobacter baumannii, ATCC19606, read-out: Minimum Inhibitory Concentration
Excerpt: as §1, §2, §3

[3] = system: Staphylococcus capitis ATCC 35661; experiment: Broth dilution MIC; type: cell-based; conditions: ATCC35661, S. capitis, read-out: Minimum Inhibitory Concentration
Excerpt: as §1, §2, §3

[4] = system: Methicillin-resistant Staphylococcus aureus ATCC 33591; experiment: Broth dilution MIC; type: cell-based; conditions: ATCC 33591 / MRSA, read-out: Minimum Inhibitory Concentration
Excerpt: as §1, §2, §3

[5] = system: Staphylococcus aureus ATCC 6538; experiment: Broth dilution MIC; type: cell-based; conditions: ATCC6538, S. aureus, read-out: Minimum Inhibitory Concentration
Excerpt: as §1, §2, §3

[6] = system: Staphylococcus schleiferi ATCC 43808; experiment: Broth dilution MIC; type: cell-based; conditions: ATCC43808, read-out: Minimum Inhibitory Concentration
Excerpt: as §1, §2, §3

[7] = system: Escherichia coli ATCC 8739; experiment: Broth dilution MIC; type: cell-based; conditions: ATCC8739, E. coli, read-out: Minimum Inhibitory Concentration
Excerpt: as §1, §2, §3

In the case of `O=S(=O)([O-])CCS.[Na+]` [Mesna, sodium 2-mercaptoethane sulfonate], the myofibroblast formation (myofibroblast formation) is given as “diminish myofibroblast formation”.
`CN(C)c1ccc(O)c2c1C[C@H]1C[C@H]3[C@H](N(C)C)C(O)=C(C(N)=O)C(=O)[C@@]3(O)C(O)=C1C2=O` [Minocycline] showed an MIC [1] of 0.017 µg/mL (≈ 0.0372 µM), an MIC [2] of 0.14 µg/mL (≈ 0.306 µM) and an MIC [3] of 0.017 µg/mL (≈ 0.0372 µM). For the same molecule, the MIC [4] was 2.23 µg/mL (≈ 4.88 µM), the MIC [5] was 0.017 µg/mL (≈ 0.0372 µM) and the MIC [6] was 0.017 µg/mL (≈ 0.0372 µM). It also gave an MIC [7] of 2.23 µg/mL (≈ 4.88 µM).
For `CO[C@H]1/C=C/O[C@@]2(C)Oc3c(C)c(O)c4c(O)c(c(/C=N/N5CCN(C)CC5)c(O)c4c3C2=O)NC(=O)/C(C)=C\C=C\[C@H](C)[C@H](O)[C@@H](C)[C@@H](O)[C@@H](C)[C@H](OC(C)=O)[C@@H]1C` [Rifampin], the MIC [1] was 0.016 µg/mL (≈ 0.0194 µM), the MIC [2] was 0.129 µg/mL (≈ 0.157 µM) and the MIC [3] was 0.016 µg/mL (≈ 0.0194 µM). For the same molecule, the MIC [4] was 2.06 µg/mL (≈ 2.5 µM), the MIC [5] was 0.016 µg/mL (≈ 0.0194 µM) and the MIC [6] was 0.016 µg/mL (≈ 0.0194 µM). The MIC [7] was 2.06 µg/mL (≈ 2.5 µM).
